In patent publication US12728168B2, “Anti-CEA antibody-exatecan analog conjugate and pharmaceutical use thereof” (JIANGSU HENGRUI MEDICINE CO., LTD., priority 2019, dated 2026):

Key:
[1] = target: T1, human CEACAM1 expressed on CHO cell surface (CEACAM1-CHO) (Homo sapiens, UniProt P13688); test: FACS binding assay, CEACAM1-CHO cells; details: Table 17, humanized antibodies and controls
T1 construct: expressed in transfected cells; host or cells: CHO cells
T1 sequence (P13688 35-526): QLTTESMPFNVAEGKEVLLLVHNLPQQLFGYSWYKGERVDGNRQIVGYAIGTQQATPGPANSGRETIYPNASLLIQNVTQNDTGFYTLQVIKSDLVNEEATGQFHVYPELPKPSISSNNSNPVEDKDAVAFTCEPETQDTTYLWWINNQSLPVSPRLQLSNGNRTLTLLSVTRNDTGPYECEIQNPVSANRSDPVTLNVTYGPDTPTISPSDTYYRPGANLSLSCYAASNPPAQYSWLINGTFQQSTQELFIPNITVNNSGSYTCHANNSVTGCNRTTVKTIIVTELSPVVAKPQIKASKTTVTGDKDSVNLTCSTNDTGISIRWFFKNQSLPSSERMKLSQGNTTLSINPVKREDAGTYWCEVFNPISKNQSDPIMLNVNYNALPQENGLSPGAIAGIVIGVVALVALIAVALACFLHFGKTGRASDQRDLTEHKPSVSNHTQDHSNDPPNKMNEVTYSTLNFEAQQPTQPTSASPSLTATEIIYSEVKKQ
Procedure: (§1) In order to detect the binding of the antibody to the CEA protein on the cell surface, the binding activity of the antibody was determined by FACS using cells expressing CEA on the cell surface. Cells were harvested and centrifuged at 400 g at 4° C. for 5 min. Pre-cooled PBS containing FBS at final concentration 10% was added, and the mixture was centrifuged at 400 g at 4° C. for 5 min; the procedures were repeated twice. The cells were seeded into a 96-well plate at 10^5 cells/well, and 100 μL of gradient diluted antibody solution was added to each well. The plate was incubated at 4° C. for 60 min and centrifuged, and the supernatant was removed. 250 μL of pre-cooled PBS containing FBS at final concentration 10% was added to each well to resuspend the cells, and the suspension was centrifuged at 400 g at 4° C. for 5 min, followed by the removal of the supernatant; the procedures were repeated twice. 50 μL of 1:200 diluted secondary antibody Alexa Fluor@488 goat anti-human IgG (H+L) (Lifetechologies, Cat #A11013) was added. The plate was incubated in the dark at 4° C. for 45 min and centrifuged, and the supernatant was removed. 250 μL of pre-cooled PBS containing FBS at final concentration 10% was added to each cell to resuspend the cells, and the suspension was centrifuged at 400 g at 4° C. for 5 min; the procedures were repeated twice. 100 μL of pre-cooled PBS was added to each well to resuspend the cells. The plate was analyzed by a flow cytometer (BD, FACSverse) for fluorescence signal values. Higher values indicate higher binding activity of the antibody to the protein on the cell surface. Binding curves were plotted using PRISM analysis software based on the assay results, and the EC50 values for the binding activity of the antibody to the cell surface proteins human CEA (MKN45 human gastric cancer cells, Nanjing Kebai Biotechnology Co., Ltd., Cat #CBP60488), cynoCEA-CHO and CEACAM1-CHO were obtained by fitting.

[2] = system: monkey CEA expressed on CHO cell surface (cynoCEA-CHO); test: FACS binding assay, cynoCEA-CHO cells; parameters: species or system cynomolgus monkey; details: Table 17, humanized antibodies and controls
Chain of monkey CEA expressed on CHO cell surface (cynoCEA-CHO) (as listed by the source): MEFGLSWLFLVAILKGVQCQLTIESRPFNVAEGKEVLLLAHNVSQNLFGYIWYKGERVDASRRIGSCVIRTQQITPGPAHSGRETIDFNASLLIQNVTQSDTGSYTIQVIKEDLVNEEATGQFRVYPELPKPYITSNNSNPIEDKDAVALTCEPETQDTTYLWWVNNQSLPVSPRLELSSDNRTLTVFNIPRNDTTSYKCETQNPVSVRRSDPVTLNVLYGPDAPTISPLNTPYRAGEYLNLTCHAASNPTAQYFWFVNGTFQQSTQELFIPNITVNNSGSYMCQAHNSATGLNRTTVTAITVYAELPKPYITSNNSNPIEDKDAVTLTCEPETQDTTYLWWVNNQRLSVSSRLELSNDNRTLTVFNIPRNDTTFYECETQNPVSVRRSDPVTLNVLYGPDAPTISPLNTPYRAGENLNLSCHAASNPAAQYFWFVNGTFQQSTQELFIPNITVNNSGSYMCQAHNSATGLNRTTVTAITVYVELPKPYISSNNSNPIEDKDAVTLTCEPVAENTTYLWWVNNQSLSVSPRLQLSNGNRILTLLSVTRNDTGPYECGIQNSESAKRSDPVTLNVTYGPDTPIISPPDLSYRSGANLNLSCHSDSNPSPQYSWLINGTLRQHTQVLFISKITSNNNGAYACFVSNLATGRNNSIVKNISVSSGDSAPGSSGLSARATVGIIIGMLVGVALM
Procedure: as §1, with “The cells were seeded into a 96-well plate at 10^5 cells/well, and 100 μL of gradient diluted antibody solution was added to each well.” left out, “values.” for “values. Higher values indicate higher binding activity of the antibody to the protein on the cell surface. Binding curves were plotted using PRISM analysis software based on the assay results, and the EC50 values for the binding activity of the antibody to the cell surface proteins human CEA (MKN45 human gastric cancer cells, Nanjing Kebai Biotechnology Co., Ltd., Cat #CBP60488), cynoCEA-CHO and CEACAM1-CHO were obtained by fitting.”

human soluble CEA = target: T2, human soluble CEA (Homo sapiens, UniProt P06731); test: Affinity of antibodies for soluble CEA using Biacore; format: binding; details: 1:1 Langmuir
T2 construct: His6 (C); made in house; host or cells: 293E cells
T2 sequence (P06731 with tags, fused parts or gaps): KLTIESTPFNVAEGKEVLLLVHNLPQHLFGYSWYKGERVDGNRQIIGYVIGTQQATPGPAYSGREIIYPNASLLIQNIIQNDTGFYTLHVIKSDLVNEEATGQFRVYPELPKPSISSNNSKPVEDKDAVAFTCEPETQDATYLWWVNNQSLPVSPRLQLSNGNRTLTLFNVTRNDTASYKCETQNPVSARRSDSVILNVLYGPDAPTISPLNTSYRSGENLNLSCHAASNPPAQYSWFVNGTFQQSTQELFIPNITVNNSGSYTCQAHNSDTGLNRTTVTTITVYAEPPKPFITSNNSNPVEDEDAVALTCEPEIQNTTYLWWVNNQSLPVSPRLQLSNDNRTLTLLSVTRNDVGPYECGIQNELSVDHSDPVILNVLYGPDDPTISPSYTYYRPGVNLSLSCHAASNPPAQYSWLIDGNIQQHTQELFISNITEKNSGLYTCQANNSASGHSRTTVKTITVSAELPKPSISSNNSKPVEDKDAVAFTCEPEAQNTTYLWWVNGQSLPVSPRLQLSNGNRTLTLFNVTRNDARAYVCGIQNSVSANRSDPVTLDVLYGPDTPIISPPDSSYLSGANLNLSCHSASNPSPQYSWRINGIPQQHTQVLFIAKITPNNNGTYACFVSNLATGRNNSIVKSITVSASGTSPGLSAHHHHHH
Procedure: The affinity of a test humanized antibody for human and monkey soluble CEA was determined using a Biacore (GE, T200) instrument. According to the method in the instructions of a human antibody capture kit (GE, Cat #BR-1008-39), the human antibody capture antibody was covalently conjugated to a biosensor chip CM5 (GE, Cat #BR-1005-30) of the Biacore instrument to affinity-capture a certain amount of the test antibody, then a series of concentration gradients of soluble CEA antigens were allow to flow through the surface of the chip, and reaction signals were detected in real time using Biacore, so that an association and dissociation curve was obtained. After each cycle of dissociation was completed, the biochip was washed and regenerated with a regeneration solution prepared in the human antibody capture kit. The data obtained from the experiment were fitted with the (1:1) Langmuir model using BIAevaluation version 4.1 software to obtain affinity values.

[3] = system: MKN45 xenograft tumor model; test: In vivo inhibitory activity against tumors, MKN45 xenograft; parameters: species or system BALB/c nude mice
Procedure: (§2) The in vivo efficacy of the ADC molecules was evaluated using LS174T and MKN45 xenograft tumor models. BALB/c nude mice (SPF grade, Shanghai Slac Laboratory Animal Co., Ltd., certificate no.: 201833814, license no.: SCXK (Jiangsu) 2016-0010) were housed in a 12/12 hour light/dark cycle at a temperature of 23±1° C. with humidity at 40-50%, with food (standard sterilized feed for mice) and water ad libitum. The mice were acclimatized for 10 days in a laboratory environment before the start of the experiment and then inoculated subcutaneously on the right flank with LS174T cells (5×10^5 cells/mouse) or MKN45 cells (4×10^6 cells/mouse). Tumors were allowed to grow to a size of about 150 mm^3, and then the mice were randomized into groups of 8. After grouping, the mice in the experimental groups were intraperitoneally injected with ADC samples in a dose of 1 mg/kg or 3 mg/kg, and those in the blank control group were intraperitoneally injected with PBS, only once. The sizes of the tumors on the mice were observed, measured and recorded.

[4] = system: MKN45 (with high CEA expression); test: Cytotoxicity of ADCs, Cell Titer-Glo, MKN45; format: cell-based, human; details: for IC50: 5 days
Procedure: (§3) Following conjugation of humanized CEA antibodies to toxin 2-A, cytotoxicity of each ADC to cancer cell lines with different CEA expression levels was evaluated. The CEA-highly expressing cells MKN45, the CEA-moderately expressing cells LS174T and the CEA-expressing negative cells HCT116 were plated in 96-well plates; gradient-diluted ADC samples were added to the cells the next day, and the cells were cultured at 37° C. for 5 days. 50 μL of Cell Titer-Glo reagent (Promega, Cat #G9242) was added to each well, and after incubation for 10 min in the dark, the luminescence signals were detected by a cell imaging detector (BioTek, Cytation5). An inhibition curve was plotted with the detection results using PRISM analysis software, and fitted to obtain an IC50 value of the inhibitory activity of the ADC against cell proliferation.

[5] = system: HCT116 (without CEA expression); test: Cytotoxicity of ADCs, Cell Titer-Glo, HCT116; format: cell-based; details: for IC50: 5 days
Procedure: as §3

[6] = system: MKN45 and HCT116 co-cultured; test: Bystander effect and cytotoxicity, MKN45 and HCT116 co-cultured; format: cell-based; details: ADC 4 nM, 5 days, FIG. 2
Procedure: (§4) In order to evaluate the bystander effect and cytotoxicity of the ADC, the CEA-highly expressing cell line MKN45 and the CEA-expressing negative cell line HCT116 were cultured in a 6-well cell culture plate for 24 h, and then an ADC sample was added at a final concentration of 4 nM. The cells were cultured in a cell incubator at 37° C. for another 5 days.
(§5) The cells were digested with pancreatin and collected, and CEA Monoclonal Antibody FITC (ThermoFisher, Cat #MA1-80578) was added at a final concentration of 10 μg/mL. The cells were incubated on ice in the dark for 1 h, washed twice with PBS, and counted using a flow cytometer.

[7] = system: LS174T xenograft tumor model; test: In vivo inhibitory activity against tumors, LS174T xenograft; parameters: species or system BALB/c nude mice
Procedure: as §2

HCT116 cultured alone = test: Bystander effect test, HCT116 cultured alone; format: cell-based; details: ADC 4 nM, 5 days, FIG. 2
Procedure: as §4, §5

[8] = system: LS174T (with moderate CEA expression); test: Cytotoxicity of ADCs, Cell Titer-Glo, LS174T; format: cell-based; details: for IC50: 5 days
Procedure: as §3

[9] = ADC batches of high DAR (6.29-7)
[10] = ADC batches of low DAR (3.97-4.8)

Lmab [reference compound]
EC50 (nM) CEACAM1-CHO [1]: No binding
EC50 (nM) cynoCEA-CHO [2]: No binding
ka (human soluble CEA): 55800 M⁻¹ s⁻¹
kd (human soluble CEA): 0.000331 s⁻¹

Lmab-CL2A-SN38: control ADC: toxin CL2A-SN38 conjugated to Lmab (labetuzumab)
Tumor inhibition rate (%) ([3]; 3 mpk, intraperitoneal, only once, 3 mg/kg): 13.51%
effect on tumor volume ([3]; FIG. 5, ranking among the 3-mpk groups): the worst inhibitory effect on tumors
effect on tumor weight ([3]; FIG. 6, last day, ranking among the 3-mpk groups): the worst inhibitory effect on tumors
IC50 [4, 9]: 0.665 nM
IC50 [4, 10]: 1.59 nM
IC50 ratio HCT116/MKN45 [4, 9]: 0.64
IC50 ratio HCT116/MKN45 [4, 10]: 0.66
IC50 [5, 9]: 0.428 nM
IC50 [5, 10]: 1.06 nM
dependence of cytotoxicity on CEA expression level ([5]; MKN45, LS174T and HCT116 compared): non-specific cytotoxicity
bystander effect and cytotoxicity [6]: very toxic
Tumor inhibition rate (%) ([7]; 3 mpk, intraperitoneal, only once): 33.44%
effect on tumor volume ([7]; FIG. 3, ranking among the 3-mpk groups): the worst inhibitory effect on tumors
effect on tumor weight ([7]; FIG. 4, last day, ranking among the 3-mpk groups): the worst inhibitory effect on tumors
toxicity to HCT116 cultured alone (HCT116 cultured alone): very toxic
IC50 [8, 9]: 0.346 nM
IC50 [8, 10]: 0.662 nM
IC50 ratio HCT116/LS174T [8, 9]: 1.24
IC50 ratio HCT116/LS174T [8, 10]: 1.60
